{
  "source": "patent US20100137449A1",
  "about": "“SUBSTITUTED 1,3-CYCLOPENTADIONE MULTI-TARGET PROTEIN KINASE MODULATORS OF CANCER, ANGIOGENESIS AND THE INFLAMMATORY PATHWAYS ASSOCIATED THEREWITH” (METAPROTEOMICS, LLC, priority 2007, published 2010)",
  "assay_in_all_cases": "KinaseProfiler Assay",
  "key": {"PDK1(h)": {"molecular_target": "T1, PDK1(h) (Homo sapiens, UniProt O15530)", "T1 sequence (O15530 1-556)": "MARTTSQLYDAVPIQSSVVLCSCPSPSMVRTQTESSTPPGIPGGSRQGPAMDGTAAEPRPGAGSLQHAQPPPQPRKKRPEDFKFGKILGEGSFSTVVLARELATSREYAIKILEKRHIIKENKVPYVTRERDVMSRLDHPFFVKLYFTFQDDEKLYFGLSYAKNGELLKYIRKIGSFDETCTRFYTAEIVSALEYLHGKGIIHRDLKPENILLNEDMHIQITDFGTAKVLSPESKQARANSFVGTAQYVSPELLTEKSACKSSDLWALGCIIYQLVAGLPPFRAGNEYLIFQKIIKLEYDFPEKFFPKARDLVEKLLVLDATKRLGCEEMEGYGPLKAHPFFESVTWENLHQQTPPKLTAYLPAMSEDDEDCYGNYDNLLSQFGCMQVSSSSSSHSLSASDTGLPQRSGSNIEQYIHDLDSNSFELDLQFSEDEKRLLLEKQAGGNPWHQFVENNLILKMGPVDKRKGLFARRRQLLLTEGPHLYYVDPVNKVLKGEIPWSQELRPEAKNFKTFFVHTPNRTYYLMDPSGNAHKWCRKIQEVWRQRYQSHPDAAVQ"}, "MuSK(h)": {"molecular_target": "T2, MuSK(h) (Homo sapiens, UniProt O15146)", "T2 sequence (O15146 24-869)": "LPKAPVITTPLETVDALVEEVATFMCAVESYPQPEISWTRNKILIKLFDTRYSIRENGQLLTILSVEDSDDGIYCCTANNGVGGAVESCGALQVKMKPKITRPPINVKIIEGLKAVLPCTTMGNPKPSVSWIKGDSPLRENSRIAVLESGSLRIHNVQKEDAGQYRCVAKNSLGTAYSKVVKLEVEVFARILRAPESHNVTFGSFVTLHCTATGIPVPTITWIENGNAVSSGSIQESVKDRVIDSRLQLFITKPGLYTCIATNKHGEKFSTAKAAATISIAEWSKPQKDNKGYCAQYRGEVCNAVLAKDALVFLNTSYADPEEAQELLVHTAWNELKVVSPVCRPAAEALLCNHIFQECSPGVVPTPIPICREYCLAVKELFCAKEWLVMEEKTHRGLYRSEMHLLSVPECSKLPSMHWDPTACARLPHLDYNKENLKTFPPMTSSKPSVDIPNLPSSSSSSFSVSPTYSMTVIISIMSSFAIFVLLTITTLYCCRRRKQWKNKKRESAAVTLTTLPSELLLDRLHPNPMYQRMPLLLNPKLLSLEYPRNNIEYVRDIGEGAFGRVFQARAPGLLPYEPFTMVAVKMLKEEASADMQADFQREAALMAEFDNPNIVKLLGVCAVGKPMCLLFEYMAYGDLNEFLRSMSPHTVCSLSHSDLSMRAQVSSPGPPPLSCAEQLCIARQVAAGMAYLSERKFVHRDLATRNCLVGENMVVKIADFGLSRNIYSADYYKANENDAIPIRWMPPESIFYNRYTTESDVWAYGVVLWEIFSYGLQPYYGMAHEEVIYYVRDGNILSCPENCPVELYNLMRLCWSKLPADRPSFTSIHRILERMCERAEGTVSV"}, "BrSK1(h)": {"molecular_target": "T3, BrSK1(h) (Homo sapiens, UniProt Q8TDC3)", "T3 sequence (Q8TDC3 1-778)": "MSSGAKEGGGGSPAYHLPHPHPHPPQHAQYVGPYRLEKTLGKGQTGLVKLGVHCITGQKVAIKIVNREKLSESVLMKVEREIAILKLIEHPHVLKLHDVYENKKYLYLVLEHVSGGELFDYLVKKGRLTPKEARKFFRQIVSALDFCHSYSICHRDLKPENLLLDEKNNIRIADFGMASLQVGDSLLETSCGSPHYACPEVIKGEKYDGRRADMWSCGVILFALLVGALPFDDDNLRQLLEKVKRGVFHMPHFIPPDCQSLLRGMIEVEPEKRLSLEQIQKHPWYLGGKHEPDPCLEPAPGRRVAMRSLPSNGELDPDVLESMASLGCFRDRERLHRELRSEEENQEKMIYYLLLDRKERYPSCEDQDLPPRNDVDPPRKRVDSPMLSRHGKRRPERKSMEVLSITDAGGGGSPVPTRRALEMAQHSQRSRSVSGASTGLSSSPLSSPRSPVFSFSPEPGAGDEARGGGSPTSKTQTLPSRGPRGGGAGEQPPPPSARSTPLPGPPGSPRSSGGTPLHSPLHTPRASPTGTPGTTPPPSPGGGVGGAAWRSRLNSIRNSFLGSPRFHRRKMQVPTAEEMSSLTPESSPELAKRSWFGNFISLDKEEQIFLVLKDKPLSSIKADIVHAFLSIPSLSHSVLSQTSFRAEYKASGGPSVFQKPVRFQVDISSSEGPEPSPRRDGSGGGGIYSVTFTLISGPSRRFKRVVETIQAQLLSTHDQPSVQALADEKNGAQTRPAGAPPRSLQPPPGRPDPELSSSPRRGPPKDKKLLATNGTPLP"}, "PhKγ2(h)": {"molecular_target": "T4, PhKγ2(h) (Homo sapiens, UniProt P15735)", "T4 sequence (P15735 1-406)": "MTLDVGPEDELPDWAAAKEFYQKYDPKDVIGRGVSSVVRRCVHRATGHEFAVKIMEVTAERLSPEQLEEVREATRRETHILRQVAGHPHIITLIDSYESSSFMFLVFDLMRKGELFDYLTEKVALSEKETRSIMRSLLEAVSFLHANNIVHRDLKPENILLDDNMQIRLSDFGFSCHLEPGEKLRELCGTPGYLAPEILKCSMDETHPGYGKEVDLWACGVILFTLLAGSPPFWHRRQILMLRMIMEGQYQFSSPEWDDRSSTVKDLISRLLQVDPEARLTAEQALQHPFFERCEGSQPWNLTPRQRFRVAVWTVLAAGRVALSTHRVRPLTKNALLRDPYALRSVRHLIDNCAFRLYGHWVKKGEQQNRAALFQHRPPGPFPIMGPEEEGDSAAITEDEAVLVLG"}},
  "data": [
    {"smiles": "CC(C)CCC(=O)[C@]1(O)C(O)=C(C(=O)C(C)C)C(=O)[C@H]1CCC(C)C", "note": "[TH2, tetrahydroiso-cohumulone]", "values": [
      {"measurement": "kinase inhibition", "setting": "PDK1(h); 1 μg/ml", "result": "122% of control"},
      {"measurement": "kinase inhibition", "setting": "PDK1(h); 5 μg/ml", "result": "123% of control"},
      {"measurement": "kinase inhibition", "setting": "PDK1(h); 25 μg/ml", "result": "102% of control"},
      {"measurement": "kinase inhibition", "setting": "PDK1(h); 50 μg/ml", "result": "87% of control"},
      {"measurement": "kinase inhibition", "setting": "PDK1(h); 100 μg/ml", "result": "69% of control"},
      {"measurement": "kinase inhibition", "setting": "MuSK(h); 1 μg/ml", "result": "104% of control"},
      {"measurement": "kinase inhibition", "setting": "MuSK(h); 5 μg/ml", "result": "101% of control"},
      {"measurement": "kinase inhibition", "setting": "MuSK(h); 25 μg/ml", "result": "99% of control"},
      {"measurement": "kinase inhibition", "setting": "MuSK(h); 50 μg/ml", "result": "98% of control"},
      {"measurement": "kinase inhibition", "setting": "MuSK(h); 100 μg/ml", "result": "97% of control"},
      {"measurement": "kinase inhibition", "setting": "BrSK1(h); 1 μg/ml", "result": "104% of control"},
      {"measurement": "kinase inhibition", "setting": "BrSK1(h); 5 μg/ml", "result": "101% of control"},
      {"measurement": "kinase inhibition", "setting": "BrSK1(h); 25 μg/ml", "result": "82% of control"},
      {"measurement": "kinase inhibition", "setting": "BrSK1(h); 50 μg/ml", "result": "66% of control"},
      {"measurement": "kinase inhibition", "setting": "BrSK1(h); 100 μg/ml", "result": "50% of control"},
      {"measurement": "kinase inhibition", "setting": "PhKγ2(h); 1 μg/ml", "result": "112% of control"},
      {"measurement": "kinase inhibition", "setting": "PhKγ2(h); 5 μg/ml", "result": "116% of control"},
      {"measurement": "kinase inhibition", "setting": "PhKγ2(h); 25 μg/ml", "result": "114% of control"},
      {"measurement": "kinase inhibition", "setting": "PhKγ2(h); 50 μg/ml", "result": "88% of control"},
      {"measurement": "kinase inhibition", "setting": "PhKγ2(h); 100 μg/ml", "result": "63% of control"}
    ]}
  ]
}
